The values below come from PMC6274835, “Inhibitory and Inductive Effects of Opuntia ficus indica Extract and Its Flavonoid Constituents on Cytochrome P450s and UDP-Glucuronosyltransferases” (International Journal of Molecular Sciences, 2018).

The test system of data set [1] is CYP2B1. As to the kind of experiment: hepatic mRNA expression (qPCR) in OVX rats after 5-week oral administration. In kind it is in vivo. The following applies: OVX rat liver; E2 0.5 mg/kg/day oral, 5 weeks; vs vehicle control.
Data set [2] deals with CYP2D1. Described as above. In kind it is in vivo. The following applies: OVX rat liver; E2 0.5 mg/kg/day oral, 5 weeks; vs vehicle control. The method, then:
(§1) Rats were bilaterally ovariectomized under 1.5–3% isoflurane anesthesia as described previously. […] Administration via forced gastric gavage was performed to ensure the exact amount of test compounds be dosed to each animal. […] Animals were weighed daily and dosage was changed weekly according to weight gain. Animals were euthanized by carbon dioxide inhalation to minimize aversion or distress. Liver microsomal fractions were prepared from livers of OVX rats using differential centrifugation as described previously.
(§2) The total RNA was isolated from homogenized rat liver tissue using a Nucleospin RNA/Protein kit (Macherey-Nagel, Düren, Germany) according to the manufacturer’s manual. The cDNA was synthesized from the total RNA (2 μg) using oligo (dT) and M-MLV reverse transcriptase (Promega, Madison, WI, USA). A qPCR analysis was performed to determine the mRNA levels of both hepatic CYP and UGT isozymes on an ABI Prism 7500 Sequence Detection System (Applied Biosystems, Foster City, CA, USA) using SYBR Green PCR Master Mix (Toyobo, Osaka, Japan) and a gene-specific primer set (Table S1 for primer sequences).

In data set [3] the test system is UGT2B1. The data set is described as above. It counts as in vivo. The following applies: OVX rat liver; E2 0.5 mg/kg/day and both doses of OFIE (250, 500 mg/kg/day) oral, 5 weeks; range over the groups. The method, then: as §1, §2
Data set [4] has as its system CYP3A1. The data set is described as above. The following applies: OVX rat liver; E2 0.5 mg/kg/day oral, 5 weeks; vs vehicle control. It counts as in vivo.
Experimental: After 14 days of endogenous hormonal decline, rats were randomly divided into several groups (n = 6 per group) and subjected to oral administration of olive oil (control), E2 (0.5 mg/kg/day, positive control) or OFIE (250 and 500 mg/kg/day) via gastric gavage for 5 weeks. […] Administration via forced gastric gavage was performed to ensure the exact amount of test compounds be dosed to each animal. […] Animals were weighed daily and dosage was changed weekly according to weight gain.
The total RNA was isolated from homogenized rat liver tissue using a Nucleospin RNA/Protein kit (Macherey-Nagel, Düren, Germany) according to the manufacturer’s manual. The cDNA was synthesized from the total RNA (2 μg) using oligo (dT) and M-MLV reverse transcriptase (Promega, Madison, WI, USA). A qPCR analysis was performed to determine the mRNA levels of both hepatic CYP and UGT isozymes on an ABI Prism 7500 Sequence Detection System (Applied Biosystems, Foster City, CA, USA) using SYBR Green PCR Master Mix (Toyobo, Osaka, Japan) and a gene-specific primer set (Table S1 for primer sequences). The ABI 7500 Software (v2.0.6, Foster City, CA, USA) was used for the estimation of CT. The 2^−ΔΔCt method was applied for relative quantification. […] The results were expressed as fold change when the gene expression level in the vehicle control-treated sample was set as 1.
The subject of data set [5] is CYP2B1. As to the kind of experiment: ex vivo activity assay in liver microsomes of orally treated OVX rats. Also noted: species or system rat. The following applies: E2 0.5 mg/kg/day oral, 5 weeks, control group set as 1. The method, then: (§3) Rats were bilaterally ovariectomized under 1.5-3% isoflurane anesthesia as described previously. […] Administration via forced gastric gavage was performed to ensure the exact amount of test compounds be dosed to each animal. […] Animals were weighed daily and dosage was changed weekly according to weight gain. Animals were euthanized by carbon dioxide inhalation to minimize aversion or distress. Liver microsomal fractions were prepared from livers of OVX rats using differential centrifugation as described previously. […] The HPLC system (Agilent, Santa Clara, CA, USA) consisted of an Agilent 1200 binary pump, DAD, and Agilent 1260 autosampler. A Kinetex C18 reverse-phase column (5 μm, 4.6 × 150 mm) (Phenomenex, Torrance, CA, USA) protected by a KrudKatcher Ultra HPLC in-line filter (Phenomenex) was used for separation. HPLC conditions to determine the isozyme-specific metabolites and major constituents in OFIE are described in the Supplementary Materials. LC-electrospray (ESI)-tandem mass spectrometry (MS^2) analysis was employed to detect glucuronide products. An Linear Trap Quadropole (LTQ) linear ion trap mass spectrometer (Thermo Scientific, Waltham, MA, USA) with an ESI source was coupled with an Agilent 1200 HPLC system.

Data set [6] deals with UGT isoforms. The data set is described as above. Details: species or system rat. The following applies: E2 0.5 mg/kg/day oral, 5 weeks. The method, then:
as §3

Data set [7] concerns the target T1, human constitutive androstane receptor (hCAR) (Homo sapiens, UniProt Q14994).
T1 construct: expressed in transfected cells; host or cells: HepG2
T1 sequence (Q14994 1-352): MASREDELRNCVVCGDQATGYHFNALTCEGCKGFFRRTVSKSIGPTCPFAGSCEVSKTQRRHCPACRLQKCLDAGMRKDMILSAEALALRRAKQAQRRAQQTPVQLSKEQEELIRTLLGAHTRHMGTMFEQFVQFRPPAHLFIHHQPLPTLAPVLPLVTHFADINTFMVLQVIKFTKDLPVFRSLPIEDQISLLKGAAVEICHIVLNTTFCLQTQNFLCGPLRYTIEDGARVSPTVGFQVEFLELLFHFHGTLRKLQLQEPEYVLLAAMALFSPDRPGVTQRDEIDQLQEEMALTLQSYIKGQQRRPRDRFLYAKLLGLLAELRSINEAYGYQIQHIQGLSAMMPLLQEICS
As to the kind of experiment: CAR-mediated CYP2B6 promoter luciferase reporter assay in HepG2 cells. The following applies: E2, concentration not given, 24 h, vs DMSO. It counts as cell-based. On the technique in general: In a reporter assay the amount or activity of a reporter protein is the signal.

Data set [8] addresses T2, human pregnane X receptor (hPXR) (Homo sapiens, UniProt O75469).
T2 construct: expressed in transfected cells; host or cells: HepG2
T2 sequence (O75469 1-434): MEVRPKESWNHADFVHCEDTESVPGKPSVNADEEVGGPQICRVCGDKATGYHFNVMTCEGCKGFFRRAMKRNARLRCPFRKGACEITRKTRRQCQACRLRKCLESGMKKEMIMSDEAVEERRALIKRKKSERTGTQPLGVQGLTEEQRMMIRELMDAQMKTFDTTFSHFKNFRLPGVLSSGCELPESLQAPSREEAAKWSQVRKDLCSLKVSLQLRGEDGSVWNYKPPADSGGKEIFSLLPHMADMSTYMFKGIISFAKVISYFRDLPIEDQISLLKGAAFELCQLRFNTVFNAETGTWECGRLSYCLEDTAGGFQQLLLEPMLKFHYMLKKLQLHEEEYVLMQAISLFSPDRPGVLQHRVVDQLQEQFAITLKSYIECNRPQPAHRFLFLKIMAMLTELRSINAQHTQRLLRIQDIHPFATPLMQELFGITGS
As to the kind of experiment: PXR-mediated CYP3A4 promoter luciferase reporter assay in HepG2 cells. It counts as cell-based. The following applies: 24 h, vs DMSO; for induction in the PXR promoter activity: individual flavonoids 10 μM. The method, then: The human hepatocarcinoma cell line HepG2 was purchased from the […] (Manassas, VA, USA) and maintained in Dulbecco’s modified Eagle’s essential medium (DMEM) containing 10% fetal bovine serum, 1% nonessential amino acids, 1% GlutaMAX, and 1% antibiotics/antimycotics in a 5% CO2 atmosphere at 37 °C.
The expression plasmid for human constitutive androstane receptor (hCAR; pcDNA3-CAR) and pGL3-CYP2B6 luciferase construct were kindly provided by Dr. Hongbing Wang (University of Maryland, College Park, MD, USA). The plasmid for human pregnane X receptor (hPXR; pcDNA3-PXR) and pGL3-CYP3A4 luciferase construct were generous gifts from Masahiko Negishi (National Institutes of Health, Bethesda, MD, USA). HepG2 cells were seeded at a density of 1.5 × 10^5 cells/well into a 24-well plate. On the next day, the cells were transfected with 0.25 μg of either pcDNA3-CAR or pcDNA3-PXR and 0.25 μg of promoter luciferase plasmid (i.e., either pGL3-CYP2B6 or pGL3-CYP3A4) using Lipofectamine 2000 (Invitrogen, Carlsbad, CA, USA) according to the manufacturer’s instructions. To normalize the transfection efficiency, the pRL-TK plasmid (0.25 μg/well; Promega), which contains cDNA encoding Renilla luciferase, was cotransfected. The transfected cells were grown for 24 h, treated with various test materials, and incubated for an additional 24 h. The luciferase activities in the cell lysates were measured using the dual luciferase assay system (Promega) with a SpectraMax i3x (Molecular Devices, San Jose, CA, USA). Data are reported as a relative luciferase activity, which is the firefly luciferase reading divided by the Renilla luciferase reading.

In data set [9] the test system is CYP2C11. As to the kind of experiment: CYP inhibition assay in OVX rat liver microsomes. The following applies: for inhibition at 60 min, 10 μM: female, liver microsomes from ovariectomized (OVX) rats, pH 7.4, individual constituents 10 μM. In kind it is in vitro ADME. The method, then:
(§4) CYP-mediated metabolite formation from a substrate (200 μM each) or the formation of glucuronide conjugates from the UGT isozyme-specific substrate (200 μM each) was monitored to determine the isozyme activity. Typical incubation was performed with rat (1 mg/mL) or human (0.5 mg/mL) liver microsomes in the presence of an appropriate cofactor in a buffer system (pH 7.4) at 37 °C for 60 min as described previously.
(§5) The HPLC system (Agilent, Santa Clara, CA, USA) consisted of an Agilent 1200 binary pump, DAD, and Agilent 1260 autosampler. A Kinetex C18 reverse-phase column (5 μm, 4.6 × 150 mm) (Phenomenex, Torrance, CA, USA) protected by a KrudKatcher Ultra HPLC in-line filter (Phenomenex) was used for separation. HPLC conditions to determine the isozyme-specific metabolites and major constituents in OFIE are described in the Supplementary Materials. LC-electrospray (ESI)-tandem mass spectrometry (MS^2) analysis was employed to detect glucuronide products. An Linear Trap Quadropole (LTQ) linear ion trap mass spectrometer (Thermo Scientific, Waltham, MA, USA) with an ESI source was coupled with an Agilent 1200 HPLC system.
Background: Microsomes from liver hold many membrane-bound enzymes, among them those of drug oxidation.

The target in data set [10] is T3, CYP1A2 (Homo sapiens, UniProt P05177).
T3 construct: tissue Corning 452117; host or cells: pooled human liver microsomes (150 donors)
T3 sequence (P05177 1-516): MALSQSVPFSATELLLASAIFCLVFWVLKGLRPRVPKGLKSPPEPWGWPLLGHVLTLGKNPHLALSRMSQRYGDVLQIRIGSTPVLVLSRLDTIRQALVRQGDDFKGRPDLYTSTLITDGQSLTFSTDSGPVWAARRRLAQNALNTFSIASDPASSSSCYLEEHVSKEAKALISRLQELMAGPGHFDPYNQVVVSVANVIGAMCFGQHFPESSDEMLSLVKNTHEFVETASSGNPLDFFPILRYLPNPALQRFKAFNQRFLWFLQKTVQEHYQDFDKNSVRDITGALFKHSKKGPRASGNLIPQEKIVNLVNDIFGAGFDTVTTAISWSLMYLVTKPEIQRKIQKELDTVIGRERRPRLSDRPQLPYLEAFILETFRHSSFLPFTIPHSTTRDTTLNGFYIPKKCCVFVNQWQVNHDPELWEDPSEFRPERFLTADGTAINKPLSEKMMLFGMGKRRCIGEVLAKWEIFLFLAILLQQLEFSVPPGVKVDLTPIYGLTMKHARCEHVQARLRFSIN
In words: CYP inhibition assay in human liver microsomes. In kind it is in vitro ADME. The following applies: pooled human liver microsomes, individual constituents 10 μM; for inhibition at 60 min, 10 μM: pH 7.4. The method, then:
as §4
The HPLC system (Agilent, Santa Clara, CA, USA) consisted of an Agilent 1200 binary pump, DAD, and Agilent 1260 autosampler. A Kinetex C18 reverse-phase column (5 μm, 4.6 × 150 mm) (Phenomenex, Torrance, CA, USA) protected by a KrudKatcher Ultra HPLC in-line filter (Phenomenex) was used for separation. […] LC-electrospray (ESI)-tandem mass spectrometry (MS^2) analysis was employed to detect glucuronide products. An Linear Trap Quadropole (LTQ) linear ion trap mass spectrometer (Thermo Scientific, Waltham, MA, USA) with an ESI source was coupled with an Agilent 1200 HPLC system.

For data set [11], the system named is CYP3A1. As to the kind of experiment: CYP inhibition assay in OVX rat liver microsomes. In kind it is in vitro ADME. The following applies: female, liver microsomes from ovariectomized (OVX) rats, pH 7.4, individual constituents 10 μM. The method, then: as §4, §5
The target of data set [12] is T4, CYP3A4 (Homo sapiens, UniProt P08684).
T4 construct: tissue Corning 452117; host or cells: pooled human liver microsomes (150 donors)
Details: method as in earlier work. The following applies: range given jointly for quercetin and kaempferol on CYP1A2 and CYP3A4; Von Moltke et al.; read-out: IC50, inhibition of CYP3A4; cited from earlier work.

T4 sequence (P08684 whole entry): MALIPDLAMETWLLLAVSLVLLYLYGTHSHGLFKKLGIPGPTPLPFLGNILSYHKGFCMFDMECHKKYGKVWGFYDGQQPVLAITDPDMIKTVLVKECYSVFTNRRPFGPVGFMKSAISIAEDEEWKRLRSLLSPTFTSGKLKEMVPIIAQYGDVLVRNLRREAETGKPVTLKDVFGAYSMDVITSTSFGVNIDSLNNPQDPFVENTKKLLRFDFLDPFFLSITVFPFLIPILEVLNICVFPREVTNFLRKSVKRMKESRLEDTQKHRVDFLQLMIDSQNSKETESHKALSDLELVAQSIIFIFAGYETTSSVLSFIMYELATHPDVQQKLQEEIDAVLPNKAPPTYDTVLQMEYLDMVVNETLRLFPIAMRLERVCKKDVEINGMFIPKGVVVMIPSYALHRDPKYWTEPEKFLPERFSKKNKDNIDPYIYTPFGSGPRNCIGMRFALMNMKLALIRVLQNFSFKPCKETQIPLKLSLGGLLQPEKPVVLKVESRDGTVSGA

For the molecule `C[C@]12CC[C@@H]3c4ccc(O)cc4CC[C@H]3[C@@H]1CC[C@@H]2O` [E2, 17β-Estradiol], the “increase in mRNA expression of CYP2B1” value in [1] is recorded as 7.7 fold. In addition, the “increase in mRNA expression of CYP2D1” value in [2] was 2.6 fold. The “increased expression of UGT2B1 mRNA” value in data set [3] is listed as 3.8–6.5 folds. The “increase in mRNA expression of CYP3A1” value in [4] was 12 fold. In data set [5], the “increase in activity of CYP2B1” value is on record as 2.7 fold. In addition, the “change in activities of all UGT isoforms examined” value in data set [6] is listed as “no changes”. The “increase in CAR-mediated CYP2B6 reporter activity” value in data set [7] was 4.8 fold. Moreover, the “PXR-mediated CYP3A4 reporter activity” value in data set [8] (E2, concentration not given) was “did not alter”.

The inhibition is the drop in the measured response relative to a control, in per cent. On to `COc1cc(-c2oc3cc(O)cc(O)c3c(=O)c2O)ccc1O` [isorhamnetin], for which the “inhibition of rat CYP2C11 activity” value in data set [9] (individual constituents 10 μM) was “did not result in a significant inhibition”. Further, in data set [10], the inhibition at 60 min, 10 μM worked out at 40%.

One may read the IC50 as the midpoint of a concentration-inhibition curve. As for `O=c1c(O)c(-c2ccc(O)cc2)oc2cc(O)cc(O)c12` [kaempferol], the inhibition at 60 min, 10 μM in data set [9] came out at 10%; in [11], 20%. For the same molecule, the IC50 in data set [12] was 10 to 16 µM.

As for `COc1cc(-c2oc3cc(O)cc(O)c3c(=O)c2O[C@@H]2O[C@H](CO[C@@H]3O[C@@H](C)[C@H](O)[C@@H](O)[C@H]3O)[C@@H](O)[C@H](O)[C@H]2O)ccc1O` [narcissin], the “induction in the PXR promoter activity” value in data set [8] is listed as “significant induction”. The inhibition at 60 min, 10 μM in [11] worked out at 10%. Besides, the “inhibition of human CYP1A2 activity” value in data set [10] is reported as “did not significantly inhibit”.

For `O=c1c(O)c(-c2ccc(O)c(O)c2)oc2cc(O)cc(O)c12` [quercetin], the inhibition at 60 min, 10 μM was determined as 18% in [9], 10% in data set [11] and 31% in data set [10].

Turning to `C[C@@H]1O[C@@H](OC[C@H]2O[C@@H](Oc3c(-c4ccc(O)c(O)c4)oc4cc(O)cc(O)c4c3=O)[C@H](O)[C@@H](O)[C@@H]2O)[C@H](O)[C@H](O)[C@H]1O` [rutin], the “induction in the PXR promoter activity” value in data set [8] was “significant induction”.
